# Laboratory results: ChEMBL document CHEMBL1201862, “PubChem BioAssay data set” (2004)
#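 Five compound concentrations were applied to cells in 96-well plates for 48 hours; endpoints were derived by simple linear interpolation of the resulting dose-response curve. GI50: concentration for 50% inhibition of growth.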 The source made the active and inactive calls. Cut-off read from the data, not from the text of the source: active = GI50 up to about 1.1 µM and inactive = higher.
# Experiments:
# Assay in all cases: NCI tumour cell line growth inhibition, 48 h
# OVCAR-5 = test system: OVCAR-5
# NCI-H522 = test system: NCI-H522
# MDA-MB-435 = test system: MDA-MB-435
# M14 = test system: M14
# U-251 = test system: U-251
# BT-549 = test system: BT-549
# HOP-62 = test system: HOP-62
# HCT-15 = test system: HCT-15
# NCI/ADR-RES = test system: NCI/ADR-RES
# UO-31 = test system: UO-31
# IGROV-1 = test system: IGROV-1
# Hs-578T = test system: Hs-578T
# SF-295 = test system: SF-295
# NCI-H460 = test system: NCI-H460
# ACHN = test system: ACHN
# SW-620 = test system: SW-620
# RXF 393 = test system: RXF 393
# K562 = test system: K562
# LOX IMVI = test system: LOX IMVI
Structure (SMILES),GI50 (OVCAR-5),GI50 (NCI-H522),GI50 (MDA-MB-435),GI50 (M14),GI50 (U-251),GI50 (BT-549),GI50 (HOP-62),GI50 (HCT-15) [µM],GI50 (NCI/ADR-RES),GI50 (UO-31),GI50 (IGROV-1),GI50 (Hs-578T),GI50 (SF-295),GI50 (NCI-H460),GI50 (ACHN),GI50 (SW-620),GI50 (RXF 393),GI50 (K562),GI50 (LOX IMVI)
Cc1ccc(CCCCCOc2ccc(C3=NCCO3)cc2)s1,> 100 µM (inactive),> 100 µM (inactive),4.85 µM (inactive),> 100 µM (inactive),> 100 µM (inactive),> 100 µM (inactive),> 100 µM (inactive),> 100,> 100 µM (inactive),> 100 µM (inactive),> 100 µM (inactive),> 100 µM (inactive),> 100 µM (inactive),> 100 µM (inactive),> 100 µM (inactive),> 100 µM (inactive),> 100 µM (inactive),9.29 µM (inactive),–
N#C/C(=C\c1ccccc1)C(=O)Nc1nnc(-c2ccccc2)o1,82.6 µM (inactive),38 µM (inactive),37.8 µM (inactive),37.8 µM (inactive),37.4 µM (inactive),28.2 µM (inactive),37.6 µM (inactive),26.9,29.6 µM (inactive),29.4 µM (inactive),27.6 µM (inactive),> 100 µM (inactive),13.2 µM (inactive),–,35.6 µM (inactive),52.7 µM (inactive),34 µM (inactive),26.4 µM (inactive),37.5 µM (inactive)
CC(C)(C)OC(=O)N(CCCCNCc1ccc2ccccc2c1)CCCNCc1ccc2ccccc2c1,1.67 µM (inactive),1.58 µM (inactive),1.84 µM (inactive),1.96 µM (inactive),1.89 µM (inactive),1.73 µM (inactive),1.86 µM (inactive),1.57,1.57 µM (inactive),1.73 µM (inactive),1.64 µM (inactive),1.77 µM (inactive),1.9 µM (inactive),0.736 µM (active),1.92 µM (inactive),1.75 µM (inactive),1.69 µM (inactive),0.273 µM (active),–
COc1ccc(C2N(c3ccc(F)cc3)C(=O)N3C(c4ccc(OC)cc4)N(c4ccc(F)cc4)C(=O)N23)cc1 (configuration not stated),> 100 µM (inactive),> 100 µM (inactive),> 100 µM (inactive),> 100 µM (inactive),> 100 µM (inactive),> 100 µM (inactive),> 100 µM (inactive),> 100,> 100 µM (inactive),> 100 µM (inactive),> 100 µM (inactive),> 100 µM (inactive),> 100 µM (inactive),> 100 µM (inactive),> 100 µM (inactive),> 100 µM (inactive),> 100 µM (inactive),–,> 100 µM (inactive)
CC(=O)NC1=CC(=O)C=C(Cl)C1=O,> 100 µM (inactive),28.9 µM (inactive),17.9 µM (inactive),42.3 µM (inactive),> 100 µM (inactive),> 100 µM (inactive),> 100 µM (inactive),> 100,> 100 µM (inactive),> 100 µM (inactive),> 100 µM (inactive),> 100 µM (inactive),> 100 µM (inactive),> 100 µM (inactive),> 100 µM (inactive),19 µM (inactive),92.5 µM (inactive),33.7 µM (inactive),–
CCOC(=O)c1nc2cc(N3CCOCC3)c(F)cc2[nH]c1=O,64.3 µM (inactive),67.9 µM (inactive),> 100 µM (inactive),> 100 µM (inactive),> 100 µM (inactive),> 100 µM (inactive),57.5 µM (inactive),> 100,> 100 µM (inactive),35.2 µM (inactive),39 µM (inactive),33.4 µM (inactive),83.4 µM (inactive),> 100 µM (inactive),> 100 µM (inactive),> 100 µM (inactive),> 100 µM (inactive),> 100 µM (inactive),–
Cc1ccc(/N=N/c2c(O)c(C(=O)O)cc3ccccc23)c(S(=O)(=O)O)c1,> 100 µM (inactive),> 100 µM (inactive),> 100 µM (inactive),> 100 µM (inactive),> 100 µM (inactive),> 100 µM (inactive),> 100 µM (inactive),> 100,> 100 µM (inactive),> 100 µM (inactive),> 100 µM (inactive),> 100 µM (inactive),> 100 µM (inactive),–,> 100 µM (inactive),> 100 µM (inactive),> 100 µM (inactive),> 100 µM (inactive),> 100 µM (inactive)
CSc1nc(SC)c2c(C)cn(COCCOC(=O)c3ccccc3)c2n1,> 100 µM (inactive),> 100 µM (inactive),> 100 µM (inactive),> 100 µM (inactive),> 100 µM (inactive),> 100 µM (inactive),> 100 µM (inactive),> 100,> 100 µM (inactive),44.3 µM (inactive),> 100 µM (inactive),54.1 µM (inactive),> 100 µM (inactive),88.5 µM (inactive),> 100 µM (inactive),> 100 µM (inactive),82.6 µM (inactive),–,58.2 µM (inactive)
COc1cc2c(cc1OC)C(Cc1ccccc1CCCl)=NCC2,> 100 µM (inactive),15.9 µM (inactive),40.1 µM (inactive),38.1 µM (inactive),53.2 µM (inactive),40.3 µM (inactive),> 100 µM (inactive),25.1,25.8 µM (inactive),31.3 µM (inactive),27 µM (inactive),73.5 µM (inactive),33.7 µM (inactive),21.9 µM (inactive),73.3 µM (inactive),42 µM (inactive),43.7 µM (inactive),30.3 µM (inactive),–
Cc1oc2nc(N(C)C)nc(Cl)c2c1C,> 100 µM (inactive),> 100 µM (inactive),> 100 µM (inactive),> 100 µM (inactive),> 100 µM (inactive),> 100 µM (inactive),> 100 µM (inactive),> 100,> 100 µM (inactive),26.8 µM (inactive),49.8 µM (inactive),> 100 µM (inactive),> 100 µM (inactive),> 100 µM (inactive),> 100 µM (inactive),> 100 µM (inactive),40.6 µM (inactive),> 100 µM (inactive),–
Cc1cc(S(=O)(=O)Nc2nc(-c3ccccn3)n[nH]2)c(S)cc1Cl,15.5 µM (inactive),27.4 µM (inactive),25.1 µM (inactive),15.2 µM (inactive),13.3 µM (inactive),17.9 µM (inactive),9.75 µM (inactive),5.68,6.5 µM (inactive),2.67 µM (inactive),25.3 µM (inactive),28.8 µM (inactive),–,10.6 µM (inactive),15.8 µM (inactive),12.2 µM (inactive),17.4 µM (inactive),–,27.2 µM (inactive)
